Legend:
cancer = details: clinical studies; cited from earlier work
B16B16 melanoma = test: Tumour experiment: subcutaneously growing B16B16 melanoma in C57BL/6 mice, tumor size index; type: in vivo
Protocol: Female C57BL/6J@RJ mice were purchased from Janvier (Le Genest-Saint-Isle, France). The animals were housed in 14-10 hours light/dark cycles in a temperature-controlled, air-conditioned room, and received food and water ad libitum. The mice were used for the tumour experiment at the age of 8-12 weeks.
The melanin-positive melanoma B16B16 cells (Hart et al., 1979) were cultured in RPMI 1640 (Invitrogen) supplemented with 10% FCS, 50 IU/ml penicillin G, 50 μg/ml streptomycin sulphate, 2 mM L-glutamine and 0.4 mM Na-pyruvate. For tumor inoculation cells were detached from the culture flask by a short EDTA treatment, washed three times in endotoxin-free sterile PBS (Sigma), and resuspended in PBS at 6×10^6 cells/ml.
On day 0, the mice were inoculated with 6×10^5 cells subcutaneously in the back just in front of the hind limb. Treatment was started when the tumor size index (TSI), i.e., the product of the largest perpendicular diameters in cm, reached 0.5 (day 13). Treatment with hTNF (30 μg/injection) or low dose mTNF (0.7 μg/injection) was given daily for 9 or 10 consecutive days via paralesional injection (subcutaneous injection near the site of the tumor, but outside the nodule). Alpha-GalCer (1-2 μg/injection) was injected intraperitoneally. […] TSI and body weight were measured every day prior to injection and every two or three days when treatment was finished.

## CCCCCCCCCCCCCCCCCCCCCCCCCC(=O)N[C@@H](CO[C@H]1O[C@H](CO)[C@H](O)[C@H](O)[C@H]1O)[C@H](O)[C@H](O)CCCCCCCCCCCCCC [alpha-GalCer, (2S 3S, 4R)-1-O-(alfa-D-galactopyranosyl)-N-hexacosanoyl-2-amino-1,3,4-octadecanetriol]
cancer
  clinical anti-tumour effects: no clinical anti-tumour effects were recorded
B16B16 melanoma; larger scale experiment, n=7, alpha-GalCer 1 μg/mouse pre-treatment, hTNF 30 μg/injection, low dose mTNF 0.7 μg/injection
  effect on tumour growth: small inhibiting effect
B16B16 melanoma; pilot experiment, alpha-GalCer 2 μg/mouse i.p., hTNF 30 μg/injection paralesional daily, single agents alone
  effect on tumor growth: no effect on tumor growth

From patent publication US7959907B2, “Method of treating cancer by combination therapy using TNF and alpha-galactosylceramide” (VIB VZW, priority 2007, dated 2011)
